From PubChem BioAssay (NCI)
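Values below derive from 48-hour exposures of cells grown in 96-well plates, with endpoints linearly interpolated between the two concentrations bracketing the appropriate inhibition level. The concentration for full growth arrest is given as TGI.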

Legend:
Assay in all cases: DTP human tumour cell line panel, 48 h
NCI-H226 lung = test system: NCI-H226 lung
SK-MEL-28 melanoma = test system: SK-MEL-28 melanoma
RXF 393 renal = test system: RXF 393 renal
NCI-H460 lung = test system: NCI-H460 lung
COLO 205 colon = test system: COLO 205 colon
HCC-2998 colon = test system: HCC-2998 colon
HCT-15 colon = test system: HCT-15 colon
A549 NSCLC = test system: A549 NSCLC
LXFL 529 NSCLC = test system: LXFL 529 NSCLC
RPMI-8226 leukemia = test system: RPMI-8226 leukemia
OVCAR-4 ovarian = test system: OVCAR-4 ovarian
TK-10 renal = test system: TK-10 renal
EKVX NSCLC = test system: EKVX NSCLC
SN12C renal = test system: SN12C renal
MALME-3M melanoma = test system: MALME-3M melanoma
SK-MEL-2 melanoma = test system: SK-MEL-2 melanoma
A498 renal = test system: A498 renal
DMS 273 small cell lung = test system: DMS 273 small cell lung
786-0 renal = test system: 786-0 renal
UACC-257 melanoma = test system: UACC-257 melanoma
ACHN renal = test system: ACHN renal
KM12 colon = test system: KM12 colon
SW-620 colon = test system: SW-620 colon
SNB-19 CNS = test system: SNB-19 CNS
UO-31 renal = test system: UO-31 renal
MOLT-4 leukemia = test system: MOLT-4 leukemia
SK-OV-3 ovarian = test system: SK-OV-3 ovarian
SNB-75 CNS = test system: SNB-75 CNS
SNB-78 CNS = test system: SNB-78 CNS
DMS 114 small cell lung = test system: DMS 114 small cell lung
OVCAR-5 ovarian = test system: OVCAR-5 ovarian
K-562 leukemia = test system: K-562 leukemia
SF-539 CNS = test system: SF-539 CNS
SK-MEL-5 melanoma = test system: SK-MEL-5 melanoma
SF-268 CNS = test system: SF-268 CNS
UACC-62 melanoma = test system: UACC-62 melanoma
NCI-H23 lung = test system: NCI-H23 lung
IGROV1 ovarian = test system: IGROV1 ovarian
CCRF-CEM leukemia = test system: CCRF-CEM leukemia
LOX IMVI melanoma = test system: LOX IMVI melanoma
OVCAR-8 ovarian = test system: OVCAR-8 ovarian
HL-60(TB) leukemia = test system: HL-60(TB) leukemia
OVCAR-3 ovarian = test system: OVCAR-3 ovarian
M19-MEL melanoma = test system: M19-MEL melanoma
XF 498 CNS = test system: XF 498 CNS
HOP-92 NSCLC = test system: HOP-92 NSCLC
KM20L2 colon = test system: KM20L2 colon
HT29 colon = test system: HT29 colon
M14 melanoma = test system: M14 melanoma
SF-295 CNS = test system: SF-295 CNS
U251 CNS = test system: U251 CNS
HOP-62 NSCLC = test system: HOP-62 NSCLC
HCT-116 colon = test system: HCT-116 colon
DLD-1 colon = test system: DLD-1 colon
RXF-631 renal = test system: RXF-631 renal
SR leukemia = test system: SR leukemia
NCI-H522 lung = test system: NCI-H522 lung
CAKI-1 renal = test system: CAKI-1 renal
HOP-18 NSCLC = test system: HOP-18 NSCLC

Measured: TGI

CCOC(=O)C(C(=O)OCC)=C1C=C(c2ccccc2)c2ccccc21
62.9 µM: A498 renal
46.8 µM: HOP-92 NSCLC
89.4 µM: RPMI-8226 leukemia
92 µM: HL-60(TB) leukemia
not listed: RXF-631 renal | SR leukemia | NCI-H522 lung | CAKI-1 renal | HOP-18 NSCLC
> 100 µM: all other assays above

NC(CCc1nc(-c2cccc([N+](=O)[O-])c2)cs1)C(=O)O (configuration not stated)
not listed: NCI-H226 lung | COLO 205 colon | HCC-2998 colon | HCT-15 colon | LXFL 529 NSCLC | RPMI-8226 leukemia | OVCAR-4 ovarian | SN12C renal | MALME-3M melanoma | SK-MEL-2 melanoma | 786-0 renal | SW-620 colon | SNB-75 CNS | K-562 leukemia | SF-539 CNS | SK-MEL-5 melanoma | SF-268 CNS | LOX IMVI melanoma | OVCAR-3 ovarian | XF 498 CNS | DLD-1 colon | CAKI-1 renal | HOP-18 NSCLC
> 100 µM: all other assays above

COc1ccc(S(=O)(=O)N/N=C(\C)CN2C(=O)c3ccccc3C2=O)cc1OC
not listed: RXF 393 renal | LOX IMVI melanoma | RXF-631 renal
> 100 µM: all other assays above

C/C=C1\Oc2ccc(OC)cc2S1(=O)=O
not listed: SF-539 CNS | XF 498 CNS | RXF-631 renal
> 100 µM: all other assays above
